In this assay the test system is B6C3F1 mice, Lewis lung carcinoma iv, survival T/C. Nature of the assay: NCI In Vivo Anticancer Drug Screen. Data for tumor model Lewis Lung Carcinoma (intravenous) in B6C3F1 mice. The conditions noted are these: endpoint: median survival time, higher = longer survival. The procedure, abridged:
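T/C ratio derived from survival of compound-treated versus vehicle-treated mice bearing transplantable tumors.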

[1] abbreviates: dose: 2.0 mg/kg/injection, schedule: Q01DX009 (ip), vehicle: suspension in saline.
[2] abbreviates: dose: 25.0 mg/kg/injection, schedule: Q01DX001 (ip), vehicle: saline.
Setting [3] is: dose: 50.0 mg/kg/injection, schedule: Q01DX001 (ip), vehicle: saline.
[4] abbreviates: dose: 25.0 mg/kg/injection, schedule: Q01DX009 (ip), vehicle: saline with Tween-80.
Where [5] appears, read: dose: 50.0 mg/kg/injection, schedule: Q01DX009 (ip), vehicle: saline with Tween-80.
Setting [6] is: dose: 100.0 mg/kg/injection, schedule: Q01DX009 (ip), vehicle: saline with Tween-80.
Where [7] appears, read: dose: 25.0 mg/kg/injection, schedule: Q01DX009 (ip), vehicle: saline.
[8] abbreviates: dose: 50.0 mg/kg/injection, schedule: Q01DX009 (ip), vehicle: saline.
Setting [9] is: dose: 100.0 mg/kg/injection, schedule: Q01DX009 (ip), vehicle: saline.
[10] abbreviates: dose: 0.75 mg/kg/injection, schedule: Q01DX009 (ip), vehicle: saline with Tween-80.
Where [11] appears, read: dose: 1.5 mg/kg/injection, schedule: Q01DX009 (ip), vehicle: saline with Tween-80.
The mark [12] stands for this setting: dose: 3.0 mg/kg/injection, schedule: Q01DX009 (ip), vehicle: saline with Tween-80.
The mark [13] stands for this setting: dose: 3.12 mg/kg/injection, schedule: Q01DX009 (ip), vehicle: saline with Tween-80.
Where [14] appears, read: dose: 6.25 mg/kg/injection, schedule: Q01DX009 (ip), vehicle: saline with Tween-80.
The mark [15] stands for this setting: dose: 12.5 mg/kg/injection, schedule: Q01DX009 (ip), vehicle: saline with Tween-80.

The record followed here is PubChem BioAssay AID276 (DTP/NCI, 2004).

Several values for one entry are separate records, joined by “and”; a condition that tells them apart may be missing. Identical values can stand only once. Toxic doses and inconclusive results are not listed.

As to `CCOC(=O)N1Cc2cc3cc(Cl)ccc3nc2C1`, the T/C was 100 % of control (dose: 7.5 mg/kg/injection, schedule: Q01DX009 (ip), vehicle: saline with Tween-80); 98 % of control (dose: 15.0 mg/kg/injection, schedule: Q01DX009 (ip), vehicle: saline with Tween-80); 100 % of control (dose: 30.0 mg/kg/injection, schedule: Q01DX009 (ip), vehicle: saline with Tween-80); 100 % of control (dose: 60.0 mg/kg/injection, schedule: Q01DX009 (ip), vehicle: saline with Tween-80); 105 % of control (dose: 120.0 mg/kg/injection, schedule: Q01DX009 (ip), vehicle: saline with Tween-80).
For the compound `COc1cc([C@@H]2c3cc4c(cc3[C@@H](OC3OC5COC(C)OC5C(O)C3O)[C@H]3COC(=O)[C@H]23)OCO4)cc(OC)c1O` (some centres not stated), the T/C is, setting by setting: (dose: 0.5 mg/kg/injection, schedule: Q01DX009 (ip), vehicle: Klucel (hydroxypropylcellulose) (HPC)) 101 % of control; (dose: 1.0 mg/kg/injection, schedule: Q01DX009 (ip), vehicle: Klucel (hydroxypropylcellulose) (HPC)) 102 % of control; (dose: 2.0 mg/kg/injection, schedule: Q01DX009 (ip), vehicle: Klucel (hydroxypropylcellulose) (HPC)) 113 % of control; under setting [1], 113 % of control and 121 % of control; (dose: 4.0 mg/kg/injection, schedule: Q01DX009 (ip), vehicle: Klucel (hydroxypropylcellulose) (HPC)) 124 % of control; (dose: 4.0 mg/kg/injection, schedule: Q01DX009 (ip), vehicle: suspension in saline) 109 % of control. Moreover, the T/C is 151 % of control (dose: 8.0 mg/kg/injection, schedule: Q01DX009 (ip), vehicle: suspension in saline); 166 % of control and 252 % of control (dose: 16.0 mg/kg/injection, schedule: Q01DX009 (ip), vehicle: suspension in saline).
For `CC(=O)O[C@@H]1CO[C@H]2O[C@H]3[C@@H](C(C=O)=C[C@H](O)[C@@H]4C5=C(C(C)C)CC[C@]5(C)CC[C@@]34C)[C@@]2(O)C1=O`, the T/C was 103 % of control (dose: 0.75 mg/kg/injection, schedule: Q01DX009 (ip), vehicle: Klucel (hydroxypropylcellulose) (HPC)); 98 % of control (dose: 1.5 mg/kg/injection, schedule: Q01DX009 (ip), vehicle: Klucel (hydroxypropylcellulose) (HPC)); 100 % of control (dose: 3.0 mg/kg/injection, schedule: Q01DX009 (ip), vehicle: Klucel (hydroxypropylcellulose) (HPC)).
In the case of `Cc1cn(C2CC(F)C(CO)O2)c(=O)[nH]c1=O` (configuration not stated), the T/C (dose: 12.5 mg/kg/injection, schedule: Q01DX009 (ip), vehicle: suspension in saline) is 106 % of control; the T/C (dose: 25.0 mg/kg/injection, schedule: Q01DX009 (ip), vehicle: suspension in saline) was 103 % of control; the T/C (dose: 50.0 mg/kg/injection, schedule: Q01DX009 (ip), vehicle: suspension in saline) is 106 % of control; the T/C (dose: 100.0 mg/kg/injection, schedule: Q01DX009 (ip), vehicle: suspension in saline) is 100 % of control; the T/C (dose: 200.0 mg/kg/injection, schedule: Q01DX009 (ip), vehicle: suspension in saline) was 121 % of control; the T/C (dose: 400.0 mg/kg/injection, schedule: Q01DX009 (ip), vehicle: suspension in saline) was 122 % of control.
For `N=C(N)CCCCCCCCC(=N)N`, the T/C was 112 % of control (dose: 0.79 mg/kg/injection, schedule: Q01DX009 (ip), vehicle: saline); 119 % of control (dose: 1.56 mg/kg/injection, schedule: Q01DX009 (ip), vehicle: saline); 112 % of control (dose: 3.12 mg/kg/injection, schedule: Q01DX009 (ip), vehicle: saline); 124 % of control (dose: 6.25 mg/kg/injection, schedule: Q01DX009 (ip), vehicle: saline); 97 % of control (dose: 12.5 mg/kg/injection, schedule: Q01DX001 (ip), vehicle: saline); 115 % of control (dose: 12.5 mg/kg/injection, schedule: Q01DX009 (ip), vehicle: saline). In addition, the T/C is, setting by setting: under setting [2], 103 % of control; under setting [3], 107 % of control.
As to `Cn1cc(C2NC(=O)c3ccccc3N2)c2ccccc21` (configuration not stated), the T/C was 104 % of control (dose: 25.0 mg/kg/injection, schedule: Q01DX009 (ip), vehicle: Klucel (hydroxypropylcellulose) (HPC)); 105 % of control (dose: 50.0 mg/kg/injection, schedule: Q01DX009 (ip), vehicle: Klucel (hydroxypropylcellulose) (HPC)); 100 % of control (dose: 100.0 mg/kg/injection, schedule: Q01DX009 (ip), vehicle: Klucel (hydroxypropylcellulose) (HPC)); 104 % of control (dose: 200.0 mg/kg/injection, schedule: Q01DX009 (ip), vehicle: Klucel (hydroxypropylcellulose) (HPC)).
For the compound `C=COC(=O)C(Cc1ccccc1)NC(=O)OCc1ccccc1` (configuration not stated), the T/C by setting is: under setting [4], 103 % of control; under setting [5], 112 % of control; under setting [6], 98 % of control; (dose: 200.0 mg/kg/injection, schedule: Q01DX009 (ip), vehicle: saline with Tween-80) 105 % of control; (dose: 400.0 mg/kg/injection, schedule: Q01DX009 (ip), vehicle: saline with Tween-80) 94 % of control.
Regarding `c1cc2n(n1)CCN2`, the T/C under setting [7] is 107 % of control, the T/C under setting [8] is 97 % of control and the T/C under setting [9] is 97 % of control.
On to `CN=C(N)N/N=C(\C)c1ccc2c(c1)Cc1cc(/C(C)=N/NC(N)=NC)ccc1-2`, for which the T/C by setting is: (dose: 0.37 mg/kg/injection, schedule: Q01DX009 (ip), vehicle: saline with Tween-80) 95 % of control; under setting [10], 97 % of control; under setting [11], 94 % of control; under setting [12], 100 % of control.
On to `C=C(C(=O)O)C(N)C(=O)O` (configuration not stated), for which the T/C is, setting by setting: under setting [7], 95 % of control; under setting [8], 102 % of control; under setting [9], 100 % of control; (dose: 200.0 mg/kg/injection, schedule: Q01DX009 (ip), vehicle: saline) 117 % of control.
Regarding `NC(=O)/C=C/C(=O)c1c(Cl)cccc1Cl`, the T/C is, setting by setting: (dose: 0.79 mg/kg/injection, schedule: Q01DX009 (ip), vehicle: saline with Tween-80) 111 % of control; (dose: 1.56 mg/kg/injection, schedule: Q01DX009 (ip), vehicle: saline with Tween-80) 88 % of control; under setting [13], 117 % of control; under setting [14], 103 % of control; under setting [15], 108 % of control.
For `CN(C)CCN1C(=O)c2cccc3cc([N+](=O)[O-])cc(c23)C1=O`, the T/C is 94 % of control under setting [10]; 93 % of control under setting [11]; 101 % of control under setting [12]; 95 % of control (dose: 6.0 mg/kg/injection, schedule: Q01DX009 (ip), vehicle: saline with Tween-80).
Take `CCCCCCCCCCCCCCC/C([O-])=N/[N+](C)(C)CC(C)O` (configuration not stated): the T/C under setting [2] is 91 % of control; the T/C under setting [3] is 88 % of control; the T/C (dose: 100.0 mg/kg/injection, schedule: Q01DX001 (ip), vehicle: saline) is 87 % of control; the T/C (dose: 200.0 mg/kg/injection, schedule: Q01DX001 (ip), vehicle: saline) is 95 % of control.
With `O=C(CCCN1CCC(C(O)c2ccc(F)cc2)CC1)c1ccc(F)cc1` (configuration not stated), the T/C was 102 % of control under setting [13], 101 % of control under setting [14] and 105 % of control under setting [15].
Turning to `O=S(=O)(CCl)OCCCl`, the T/C reads like this: under setting [14], 103 % of control and 86 % of control; under setting [15], 100 % of control and 111 % of control; under setting [4], 99 % of control and 101 % of control and 109 % of control; under setting [5], 104 % of control and 114 % of control and 88 % of control; under setting [6], 118 % of control and 258 % of control.
For `CCC1CC2CN(CCc3c([nH]c4ccccc34)C(C(=O)OC)(c3cc4c(cc3OC)N(C)C3C(O)(C(=O)OC)C(OC(C)=O)C5(CC)C=CCN6CCC43C65)C2)C1` (configuration not stated), the T/C (dose: 0.06 mg/kg/injection, schedule: Q01DX009 (ip), vehicle: suspension in saline) is 103 % of control; the T/C (dose: 0.12 mg/kg/injection, schedule: Q01DX009 (ip), vehicle: suspension in saline) was 102 % of control; the T/C (dose: 0.25 mg/kg/injection, schedule: Q01DX009 (ip), vehicle: suspension in saline) was 108 % of control; the T/C (dose: 0.5 mg/kg/injection, schedule: Q01DX009 (ip), vehicle: suspension in saline) was 103 % of control; the T/C (dose: 1.0 mg/kg/injection, schedule: Q01DX009 (ip), vehicle: suspension in saline) is 112 % of control; the T/C under setting [1] is 102 % of control.
